Tests used:
hTLR7 = molecular target: T1, hTLR7 (Homo sapiens, UniProt Q9NYK1); test: SEAP reporter assay for hTLR-7 activity (HEK-Blue hTLR7 cells); assay type: cell-based
T1 construct: host or cells: HEK293 (HEK-Blue hTLR7)
T1 sequence (Q9NYK1 27-1049): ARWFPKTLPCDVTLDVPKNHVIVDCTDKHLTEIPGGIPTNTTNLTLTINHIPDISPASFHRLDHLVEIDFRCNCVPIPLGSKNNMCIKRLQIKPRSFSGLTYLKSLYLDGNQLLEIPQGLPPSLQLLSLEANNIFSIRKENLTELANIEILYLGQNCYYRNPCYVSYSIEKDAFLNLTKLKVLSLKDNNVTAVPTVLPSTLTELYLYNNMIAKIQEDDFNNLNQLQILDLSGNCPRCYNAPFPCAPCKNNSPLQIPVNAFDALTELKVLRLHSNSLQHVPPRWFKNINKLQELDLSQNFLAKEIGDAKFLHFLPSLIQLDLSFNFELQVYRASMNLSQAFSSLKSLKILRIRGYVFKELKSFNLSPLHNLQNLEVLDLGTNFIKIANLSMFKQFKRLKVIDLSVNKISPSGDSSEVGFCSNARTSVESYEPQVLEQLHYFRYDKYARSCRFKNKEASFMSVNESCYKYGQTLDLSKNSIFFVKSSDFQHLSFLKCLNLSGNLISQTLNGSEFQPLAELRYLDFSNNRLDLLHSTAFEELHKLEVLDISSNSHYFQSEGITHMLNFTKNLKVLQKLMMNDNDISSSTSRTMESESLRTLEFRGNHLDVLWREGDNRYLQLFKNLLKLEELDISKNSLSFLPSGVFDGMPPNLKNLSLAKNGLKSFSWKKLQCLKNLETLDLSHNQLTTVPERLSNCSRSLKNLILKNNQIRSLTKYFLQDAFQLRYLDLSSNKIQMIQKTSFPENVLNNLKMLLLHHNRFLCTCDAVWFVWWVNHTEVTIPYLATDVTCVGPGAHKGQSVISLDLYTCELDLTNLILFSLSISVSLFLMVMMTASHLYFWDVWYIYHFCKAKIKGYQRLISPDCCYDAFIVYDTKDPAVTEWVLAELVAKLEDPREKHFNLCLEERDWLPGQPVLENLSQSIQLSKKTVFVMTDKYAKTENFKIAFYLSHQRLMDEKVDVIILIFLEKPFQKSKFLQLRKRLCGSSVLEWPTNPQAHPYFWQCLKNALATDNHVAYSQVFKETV
Protocol: TLR activation induces NF-κB production and subsequent SEAP secretion, which is measured using HEK-Detection media (InvivoGen) containing a colorimetric substrate for SEAP (UV-Vis, 637 nm).
The experiments followed manufacturer protocol as follows: SEAP levels were measured via absorbance at 637 nm using HEK-Blue Detection cell culture medium (InvivoGen), which contains a SEAP-specific colorimetric substrate. Compound stock solutions were first diluted in sterile DMSO at a concentration of 10 mM. Lower concentrations were prepared by serial dilution of the initial 10 mM stock samples into sterile DMSO and these solutions (22 μL) were subsequently diluted into sterile H2O (198 μL) using a BioTek Precision XS pipetting system. HEK-Blue hTLR7, HEK-Blue hTLR8, Null 1−k, and Null 1 cell suspensions in sterile HEK-Blue Detection medium were prepared at a density of 220,000 cells per mL. Clear bottom, 96-well tissue culture treated plates (Corning) were seeded with hTLR7 and Null 1−k or hTLR8 and Null 1 cell suspensions (180 μL/well), after which 20 μL of the various sample concentrations in 10% v/v DMSO/H2O were added (20 μL) in quadruplicate wells to yield the desired testing concentration in 1% v/v DMSO cell suspension. Plates were incubated at 37° C. and 5% CO2 in the dark. Absorbance measurements were taken at 637 nm at 12 hours, 4 replicates per concentration point, per cell line (hTLR7, hTLR8, Null 1−k, Null 1). Three independent measurements on different days were performed for each analog.
Corresponding well absorbance values for each concentration tested were averaged with respect to days tested, and the average relative NF-κB induction (UV-Vis, 637 nm) of the null cell lines (Null 1-k or Null 1) were subtracted from the respective average TLR expressing cell line (hTLR7 or hTLR8) absorbance averages. […] The three independent, normalized averages for each analog were then pooled, and the data was fit using the Hill-Slope model (GraphPad Prism v7.0) using the non-linear fit from the [Agonist] vs. response—Variable Slope (four parameters) with a hill slope constrained to less than 3.

[1] = test system: canine peripheral blood mononuclear cells (cPBMCs); test: Cytokine production in canine PBMCs by ELISA (Example 2); assay type: cell-based; settings: ± SD, 20 μM, 29 hours, ELISA, triplicate
Protocol: The imidazoquinolines were further screened for cytokine production in canine peripheral blood mononuclear cells (cPBMCs). […] TNFα and IL-12 were chosen as they are typically seen in a Th-1 cytokine response.
Peripheral blood from a healthy canine donor was obtained with appropriate informed consent of the owner and under approved institutional guidelines. Blood (8 mL per tube) was drawn via sterile venipuncture into a BD Vacutainer cell preparation tube containing sodium heparin (BD Biosciences). PBMCs were isolated within one hour following procurement by density gradient centrifugation according to the manufacturer protocol and resuspended to 2.22×10^6 cells/mL in sterile RPMI 1640 medium with L-glutamine (Gibco) supplemented with 100 U/mL penicillin, 100 μg/mL streptomycin (Corning) and 10% (v/v) heat-inactivated Fetalgro (RMBIO). Corning 3917, 96-well tissue culture treated plates were seeded with the PBMC suspension (180 μL/well), 20 μL of the serially diluted TLR agonists were added in triplicate to yield the desired concentrations in a 1% (v/v) DMSO cell suspension. Cells were incubated at 37° C. in 5% CO2 for 9 hours (FIGS. 3A-3D) or 29 hours (Table 2) after which supernatants were removed and frozen at −80° C. Cytokine secretion levels were measured by ELISA (Duoset, R&D Systems) according to the manufacturer protocol. Samples and standards (n=3) were thawed and plated onto a Maxisorp flat-bottom, 384-well plate (Thermo Scientific) using a BioTek Precision XS pipetting system. Cytokine concentrations were determined by a hyperbolic or four-parameter logistic non-linear regression of the recombinant standards and subsequent interpolation using Graphpad Prism 7.0.

SMILES: CCOCc1nc2c(N)nc3ccccc3c2n1CC(C)(C)O [Compound 2, resiquimod, reference compound]
- agonist for TLR7 receptor (in words) (hTLR7): agonists
- Cytokine IFNg [1]: 26 ± 7 pg/mL
- Cytokine IL-2 [1]: 120 ± 12 pg/mL
- Cytokine IL-6 [1]: 380 ± 80 pg/mL
- Cytokine IL-10 [1]: 21 ± 2 pg/mL
- Cytokine IL-12 [1]: 2800 ± 520 pg/mL
- Cytokine TNFa [1]: 190 ± 30 pg/mL

Reference: patent US12295970B2, “Imidazoquinoline compounds and prodrugs thereof” (UNIVERSITY OF KANSAS, priority 2019, dated 2025)
